What was measured:
[1] = system: corn, rice, wheat, oat, barley, arabidopsis, sunflower, and zucchini; settings: application to intact as well as excised plant leaves; literature; cited from earlier work
miniature PARADE® roses = experiment: Foliar MDHJ spray, leaf senescence in potted miniature roses (Example 1); type: in vivo
Protocol: Potted miniature […]® roses were evaluated for the effect on leaf senescence of foliar spray treatment with an MDHJ formulation. […] Another group of four plants was sprayed with a formulation comprising 1.5 mM MDHJ, 0.5% TRITON® X-100, and 0.125% canola oil. The treated plants were sprayed on six occasions, on days 1, 3, 12, 29, 31, and 58, by spraying foliage to the point of drip. […] Senescence was indicated by chlorosis and necrosis affecting greater than 50% of an individual leaflet.

Yellow Dwarf roses = experiment: Foliar MDHJ spray, leaf senescence in potted Yellow Dwarf roses (Example 2); type: in vivo; settings: one foliar spray
Protocol: Potted Yellow Dwarf roses were grouped into one of four groups, and each of the groups received one treatment. One group was an untreated control (UTC), while the other three groups were treated with aqueous solutions of MDHJ that differed only in the concentration of MDHJ. There were three plants in each group. Before the trial began, naturally senescing leaves were visible on all plants; these were removed at the time that the trial began. The rose leaves received one foliar spray treatment by applying spray until the point of drip. […] Senescence was indicated by chlorosis and necrosis affecting greater than 50% of an individual leaf. After each evaluation, senescing leaves were removed. [table]

[2] = system: spinach seedlings, cultivar 'Merlo Nero'; experiment: MDHJ spray, leaf senescence in greenhouse-grown spinach seedlings (Example 3); type: in vivo
Protocol: Greenhouse-grown spinach seedlings, cultivar ‘Merlo Nero,’ were divided into two groups, with eight plants per group. One group was left untreated, while the other group was treated with 0.5 mM MDHJ in 0.1% ethanol by spraying leaves until the point of drip. Treatments occurred on days 1, 4 and 8 of the experiment. On day 6, senescence was noted on some leaves, defined by chlorosis and/or necrosis. Senescence began at the leaf tip and spread towards the petiole. […] All leaves from each plant were then harvested and combined for each treatment. The total number of senescing leaves were counted and taken as a percentage of the total number of leaves per treatment. Senescence was indicated by chlorosis and necrosis affecting greater than 50% of an individual leaf.

[3] = system: corn ('Kandy Korn', extra sweet) seedlings; experiment: Foliar MDHJ spray, leaf senescence in corn seedlings (Example 4); type: in vivo; settings: 6 days after treatment
Protocol: Seeds of corn (‘Kandy Korn’, extra sweet) were planted in 2-inch pots. Seedlings were germinated under 16-hour day/8-hour night greenhouse conditions. Plants were placed outdoors and received 5-6 hours of natural, direct light. Eighteen days after planting, seedlings received one of two treatments. • Treatment 1 (n=11): Foliar spray with water—control • Treatment 2 (n=12): Foliar spray of 1 mM MDHJ in water. Plant leaves from both treatments were sprayed until the point of drip and allowed to air dry before being randomly combined into the same growing tray (to provide plants from both treatments with identical growing conditions). […] Plants were observed and visible leaf senescence recorded 6 days after the single treatment. Plants were scored according to presence or absence of senescence on any leaf of the plant. […] Of the plants with senescing leaves, only one leaf per plant had senescence (10%) in the Treatment 2 group.

Solubility in water = type: physicochemical
plants = settings: U.S. Patent Application Publication No. 2009/0082453; cited from earlier work

## CC/C=C\CC1C(=O)CCC1CC(=O)O (stereo not shown) [jasmonic acid, 2-(3-oxo-2-(pent-2-enyl)cyclopentyl)acetic acid]
[1]
  effect on leaf senescence (in words): promotes or accelerates leaf senescence

## CCCCCC1C(=O)CCC1CC(=O)OC (stereo not shown) [MDHJ, methyl dihydrojasmonate]
Miniature PARADE® roses; 1.5 mM MDHJ foliar spray, sixty-five days after treatment, untreated up to 9.4% of leaflets
  senescing leaves (in words): no senescing leaves
Miniature PARADE® roses; individual plant, foliar spray 1.5 mM MDHJ, 0.5% TRITON X-100, 0.125% canola oil on days 1, 3, 12, 29, 31, 58, analyzed 65 days after first treatment, senescence = chlorosis and necrosis >50% of leaflet
  % Leaflets exhibiting senescence: 0.0%
Yellow Dwarf roses; MDHJ treatment in general (1.5, 3.0, 6.0 mM)
  rate of naturally senescing leaves compared to the untreated control group (in words): reduced the rate of naturally senescing leaves
Yellow Dwarf roses; Treatment Group 2: 1.5 mM MDHJ + 0.125% TRITON X-100 + 0.5% Canola Oil, Day 3
  Mean No. Leaves (exhibiting senescence): 27
Yellow Dwarf roses; Treatment Group 2: 1.5 mM MDHJ + 0.125% TRITON X-100 + 0.5% Canola Oil, Day 7
  Mean No. Leaves (exhibiting senescence): 1
Yellow Dwarf roses; Treatment Group 2: 1.5 mM MDHJ + 0.125% TRITON X-100 + 0.5% Canola Oil, Day 10
  Mean No. Leaves (exhibiting senescence): 5
Yellow Dwarf roses; Treatment Group 2: 1.5 mM MDHJ + 0.125% TRITON X-100 + 0.5% Canola Oil, Day 14
  Mean No. Leaves (exhibiting senescence): 13
Yellow Dwarf roses; Treatment Group 2: 1.5 mM MDHJ + 0.125% TRITON X-100 + 0.5% Canola Oil, Day 31
  Mean No. Leaves (exhibiting senescence): 27
Yellow Dwarf roses; Treatment Group 3: 3.0 mM MDHJ + 0.125% TRITON X-100 + 0.5% Canola Oil, Day 3
  Mean No. Leaves (exhibiting senescence): 25
Yellow Dwarf roses; Treatment Group 3: 3.0 mM MDHJ + 0.125% TRITON X-100 + 0.5% Canola Oil, Day 7
  Mean No. Leaves (exhibiting senescence): 1
Yellow Dwarf roses; Treatment Group 3: 3.0 mM MDHJ + 0.125% TRITON X-100 + 0.5% Canola Oil, Day 10
  Mean No. Leaves (exhibiting senescence): 4
Yellow Dwarf roses; Treatment Group 3: 3.0 mM MDHJ + 0.125% TRITON X-100 + 0.5% Canola Oil, Day 14
  Mean No. Leaves (exhibiting senescence): 12
Yellow Dwarf roses; Treatment Group 3: 3.0 mM MDHJ + 0.125% TRITON X-100 + 0.5% Canola Oil, Day 31
  Mean No. Leaves (exhibiting senescence): 25
Yellow Dwarf roses; Treatment Group 4: 6.0 mM MDHJ + 0.125% TRITON X-100 + 0.5% Canola Oil, Day 3
  Mean No. Leaves (exhibiting senescence): 23
Yellow Dwarf roses; Treatment Group 4: 6.0 mM MDHJ + 0.125% TRITON X-100 + 0.5% Canola Oil, Day 7
  Mean No. Leaves (exhibiting senescence): 2
Yellow Dwarf roses; Treatment Group 4: 6.0 mM MDHJ + 0.125% TRITON X-100 + 0.5% Canola Oil, Day 10
  Mean No. Leaves (exhibiting senescence): 5
Yellow Dwarf roses; Treatment Group 4: 6.0 mM MDHJ + 0.125% TRITON X-100 + 0.5% Canola Oil, Day 14
  Mean No. Leaves (exhibiting senescence): 12
Yellow Dwarf roses; Treatment Group 4: 6.0 mM MDHJ + 0.125% TRITON X-100 + 0.5% Canola Oil, Day 31
  Mean No. Leaves (exhibiting senescence): 23
[2]; 0.5 mM MDHJ in 0.1% ethanol sprayed on days 1, 4 and 8, counted day 8, untreated 34.6%
  % of Leaves Exhibiting Senescence: 8.6%
[2]; 0.5 mM MDHJ in 0.1% ethanol, day 8, eight plants, untreated 87.5%
  % of Plants Exhibiting Senescence: 37.5%
[2]; 0.5 mM MDHJ in 0.1% ethanol, day 8, of 8 plants, untreated 7
  Number of Plants Exhibiting Chlorosis or Necrosis: 3
[2]; 0.5 mM MDHJ in 0.1% ethanol, day 8, of 93 leaves in total, untreated 36 of 104
  Number of Senescent Leaves: 8
[3]; Treatment 2: 1 mM MDHJ in water
  of the plants with senescing leaves, only one leaf per plant had senescence (percentage in brackets): 10%
[3]; Treatment 2: 1 mM MDHJ in water, water control 43%
  severity of senescence: mean % yellow per senescing leaf (leaf area): 15%
[3]; Treatment 2: single foliar spray of 1 mM MDHJ in water (n = 12), water control 27%
  % of plants with two senescent leaves: 0%
[3]; Treatment 2: single foliar spray of 1 mM MDHJ in water (n = 12), water control 36%
  % of plants with one senescent leaf: 25%
[3]; Treatment 2: single foliar spray of 1 mM MDHJ in water (n = 12), water control 64%
  % of plants with senescing leaves: 27%
Solubility in water
  solubility in water (in words): relatively low solubility in water
plants
  effect on biotic attack and disease in plants (in words): effective in reducing biotic attack and disease in plants

## CC/C=C\CC1C(=O)CCC1CC(=O)OC (stereo not shown) [methyl jasmonate]
[1]
  effect on leaf senescence (in words): promotes or accelerates leaf senescence

— patent publication US9301524B2, “Methods for reducing leaf senescence using methyl dihydrojasmonate” (New Biology, Inc., priority 2008, dated 2016)
